# Experimental data from patent publication US7993756B2, “Long-chain quaternary ammonium compounds as wood treatment agents” (Viance, LLC, priority 2005, dated 2011).
# Columns and labels:
# [1] = test system: Postia placenta; experiment: Standard soil-block decay test (AWPA Standard Test Method E-10); type: cell-based; conditions: 2HT at 0.8% in the treating solution
# Excerpt: The vertical axis is percent weight loss of the wood blocks (negative numbers represent weight gain), and the horizontal axis is ACQ® wood preservative retention in the wood blocks expressed on a weight preservative/weight wood basis. […] The toxic threshold of ACQ® wood preservative against Postia placenta is estimated to be 0.7-0.8% in this test (FIG. 4).
# [2] = test system: soil-bed decay of Southern Pine Mini-Stakes; experiment: Accelerated Soil-bed Decay Test of Southern Pine Mini-Stakes (AWPA Standard Test Method E14); conditions: addition of 0.8% 2HT; all three retention levels; after about 10 years exposure
# Excerpt: A decay rating of 100 means no decay, and a rating of 0 indicates failure due to decay.
substance,measurement,setting,value
dimethyl di(hydrogenated tallow) ammonium compound [2HT],effect on toxicity of ACQ wood preservative toward Postia placenta,[1],almost double
same,effect on performance of ACQ wood preservative in soil-bed decay test,[2],improves the performance
